For experiment [1], the system named is Ras processing. The experiment is described as follows: Ras processing assay in EJ3 / Ras transformed 3T3 cells (FIG. 16A). The format is cell-based. The method, then: EJ3 cells were treated with peptidomimetics or vehicle for 20-24 h. Cells were lysed in lysis buffer (10 mM Na2 HPO4, pH 7.25, 150 mM NaCl, 0.1% sodium dodecyl sulfate, 1% Triton X-100, 12 mM sodium deoxycholate, 1 mM NaF, 0.2% NaN3, 2 mM PMSF, 25 μg/ml leupeptin) and the lysates were cleared by spinning at 13,000 rpm for 15 minutes. Ras protein was immunoprecipitated overnight at 4° C. with 50 μg of anti-Ras antibody (Y13-259; hybridoma from ATCC, Rockville, Md.) along with 30 μl Protein A-agarose goat anti-rat IgG complex (oncogene Science, Uniondale, N.Y.). Immunoprecipitates were washed 4 times with lysis buffer and the bound proteins were released by heating for 5 minutes in 40 μl SDS-PAGE sample buffer and subsequently electrophoresed on a 12.5% SDS-PAGE.

The subject of experiment [2] is Rap1A processing. Briefly: Rap1A processing assay in EJ3 / Ras transformed 3T3 cells (FIG. 16B). The format is cell-based. As to the method:
For Rap1A processing assays, 50 μg of cell lysates were electrophoresed as described above for Ras processing and transferred to nitrocellulose. These membranes were then blocked with 5% milk in Tris-buffered saline, pH 8.0, containing 0.5% Tween-20 and probed with anti-Rap1A (1 μg/ml in 5% milk/TBS-T; Santa Cruz Biotechnology, Santa Cruz, Calif.). Antibody reactions were visualized using peroxidase-conjugated goat anti-rabbit IgG (Oncogene) and ECL chemiluminescence as described above.

Experiment [3] deals with T1, GGTase I (Homo sapiens, UniProt P53609).
T1 construct: FTase and GGTase I activities from 60,000×g supernatants of human Burkitt lymphoma (Daudi) cells; endogenous in cells; host or cells: human Burkitt lymphoma (Daudi) cells, 60,000xg supernatant (partially purified)
Briefly: GGTase I activity assay: transfer of [3H]geranylgeranyl to recombinant H-Ras-CVLL, Daudi 60,000xg supernatant. The format is biochemical. As to the method:
FTase and GGTase I activities from 60,000×g supernatants of human Burkitt lymphoma (Daudi) cells (ATCC, Rockville, Md., USA) were assayed as described previously for FTase (41). Briefly, 100 μg of the supernatant was incubated in 50 mM Tris, pH 7.5, 50 μM ZnCl2, 20 mM KCl and 1 mM dithiothreitol (DTT). The reaction was incubated at […] for 30 min with recombinant Ha-Ras-CVLS (11 μM) and [^3 H]FPP (625 nM; 16.3 Ci/mmol) for FTase, and recombinant Ha-Ras-CVLL (5 μM) and [^3 H]geranylgeranylpyrophosphate (525 nM; 19.0 Ci/mmol) for GGTase I. The peptidomimetics were mixed with FTase and GGTase before adding to the reaction mixture.
(§1) Human Burkitt lymphoma (Daudi) cells (ATCC, Rockville, Md.) were grown in suspension in RPMI 1640 medium containing 10% fetal bovine serum (FBS) and 1% Pen-Strep in a humidified 10% CO2 incubator at 37° C. The cells were harvested and sonicated in 50 mM Tris, pH 7.5, 1 mM EDTA, 1 mM EGTA, 25 μg/ml leupeptin, 1 mM phenylmethylsulfonyl fluoride. Homogenates were then spun at 12,000×g and the resulting supernatant further spun at 60,000×g. The supernatant was assayed for both FTase and GGTase I. Briefly, 100 μg of the supernatants was incubated in 50 mM Tris, pH 7.5, 50 μM ZnCl2, 20 mM KCl, 3 mM MgCl2 and 1 mM DTT. For FTase assays, the reaction was incubated at 37° C. for 30 minutes with recombinant H-Ras-CVLS (11 μM) and [^3 H] FPP (625 nM; 16.3 Ci/mmol). For GGTase assays, the reaction was also incubated for 30 minutes at 37° C. but with recombinant H-Ras-CVLL (5 μM) and [^3 H] GGPP (525 nM; 19.0 Ci/mmol). The reaction was stopped and passed through glass fiber filters to separate free and incorporated label. For inhibition studies, the peptidomimetics were premixed with FTase or GGTase I prior to adding the remainder of the reaction mixture. Recombinant H-Ras-CVLS was prepared as described previously (26) from bacteria (31). Recombinant H-Ras-CVLL was prepared from bacteria (32).
FTase and GGTase I activities from 60,000×g supernatants of human Burkitt lymphoma (Daudi) cells (ATCC, Rockville, Md.) were assayed exactly as described previously for FTase (41). Inhibition studies were performed by determining the ability of Ras CAAX peptidomimetics to inhibit the transfer of [^3 H]-farnesyl and [^3 H]-geranylgeranyl from [^3 H]FPP and [^3 H]GGPP to H-ras-CVLS and H-Ras-CVLL, respectively (41).

Experiment [4] relates to H-Ras processing. Briefly: Ras processing assay in H-RasF cells (NIH 3T3 transformed with oncogenic H-Ras-CVLS), immunoblot. The format is cell-based. Particulars: whole cells; read-out: H-Ras processing IC50. The method, then:
H-RasF cells (45) were seeded on day 0 in 100 mm Dishes (costar) in Dulbecco's modified Eagles medium (GIBCO) and allowed to grow to 40-60% confluency. […] On day 3, cells were washed one time with ice cold PBS and were collected and lysed by incubation for 30-60 min on ice in lysis buffer (41). Lysates were cleared (14,000 rpm, 4° C., 15 min) and supernatants collected. Equal amounts of lysate were separated on a 12.5% SDS-PAGE, transfered to nitrocellulose, and a western blot performed using a anti-Ras antibody (Y13-238, ATCC) or anti-Rap1A antibody (Santa Cruz Biotechnology, Santa Cruz, Calif.). Antibody reactions were visualized using peroxidase-conjugated goat anti-rat IgG for Y13-238 and peroxidase-conjugated goat anti-rabbit IgG for Rap1A and an enhanced chemiluminescence detection system (ECL; Amersham Corp.)
H-Ras cells (45) and K-Ras4B Cells (32) were kind gifts from Dr. Channing Der and Dr. Adrienne Cox (University of North Carolina, Chapel Hill). Means of obtaining these cell lines will be easily recognized by the skilled practitioner. Cells were seeded on day 0 in 100 mm dishes in Dulbecco's modified Eagles medium supplemented with 10% calf serum and 1% penicillin-streptomycin. […] On day 3, cells were washed and lysed in lysis buffer containing 50 mM HEPES, pH 7.5, 10 mM NaCl, 1% TX-100, 10% glycerol, 5 mM MgCl2, 1 mM EGTA, 25 μg/ml leupeptin, 2 mM PMSF, 2 mM Na3 VO4, 1 mg/ml soybean trypsin inhibitor, 10 μg/ml aprotinin, 6.4 mg/ml Sigma-104® phosphatase substrate. Lysates were cleared (14,000 rpm, 4° C., 15 min) and equal amounts of protein were separated on a 12.5% SDS-PAGE, transferred to nitrocellulose, and immunoblotted using an anti-Ras antibody (Y13-259, ATCC) or an anti-RapIA antibody (SC-65, Santa Cruz Biotechnology, Santa Cruz, Calif.). Antibody reactions were visualized using either peroxidase-conjugated goat anti-rat 1 gG (for Y13-259), or peroxidase-conjugated goat anti-rabbit 1 gG (for Rap1A) and an enhanced chemiluminescence detection (ECL, Amersham Corp.), as described previously (41).
(In western blotting, separated proteins are transferred to a membrane and probed.)

Experiment [5] has as its target T2, FTase (Homo sapiens, UniProt P49356).
T2 construct: FTase and GGTase I activities from 60,000×g supernatants of human Burkitt lymphoma (Daudi) cells; endogenous in cells; host or cells: human Burkitt lymphoma (Daudi) cells, 60,000xg supernatant (partially purified)
Briefly: FTase activity assay: transfer of [3H]farnesyl from FPP to recombinant H-Ras-CVLS, Daudi 60,000xg supernatant. The format is biochemical. Particulars: for GG/F: ratio GGTase I IC50 / FTase IC50; for IC50: read-out: FTase IC50; for Selectivity: FTase over GGTase I. As to the method: FTase and GGTase I activities from 60,000×g supernatants of human Burkitt lymphoma (Daudi) cells (ATCC, Rockville, Md., USA) were assayed as described previously for FTase (41). Briefly, 100 μg of the supernatant was incubated in 50 mM Tris, pH 7.5, 50 μM ZnCl2, 20 mM KCl and 1 mM dithiothreitol (DTT).
as §1, with “For FTase assays, the reaction was incubated at 37° C. for 30 minutes with recombinant H-Ras-CVLS (11 μM) and [^3 H]” left out, “Recombinant H-Ras-CVLS was prepared as described previously (26) from bacteria (31).” left out
FTase and GGTase I activities from 60,000×g supernatants of human Burkitt lymphoma (Daudi) cells (ATCC, Rockville, Md.) were assayed exactly as described previously for FTase (41).

Experiment [6] addresses T2, FTase. The experiment is described as follows: Peptidomimetics farnesylation assay (silica gel TLC). The format is biochemical. Particulars: Table 4; substrate for farnesylation, TLC. As to the method:
The ability of human Burkitt lymphoma (Daudi) FTase to farnesylate peptides and peptidomimetics was determined as described previously (34, 35). Briefly, 25 μl of reaction mixture containing 50 μg of 60,000×g supernatants and 20 μM peptidomimetic in 50 mM Tris, pH 7.5, 50 μM ZnCl2, 20 mM KCl, 3 mM MgCl2, 1 mM DTT and 0.2% octylβ-D-glucoside was incubated for 30 minutes at 37° C., then spotted onto silica gel G TLC sheets (20×20 cm, Brinkmann Instruments), and developed with n-propanol/5 N ammonium hydroxide/water (6:1:1). The dried sheets were sprayed with En^3 Hance (DuPont NEN) and exposed to x-ray film for detection of [^3 H] farnesylated products.

Setting [7] is: Table 1, read-out: GGTase I IC50.
Setting [8] is: Table 4, read-out: GGTase-I IC50.

Read-outs that look alike come from different tables or passages of the source. Bounds are passed on as bounds.

This is an account of results in patent US5965539A, “Inhibitors of prenyl transferases” (Univeristy of Pittsburgh, priority 1996, dated 1999).

T1 sequence (P53609 whole entry): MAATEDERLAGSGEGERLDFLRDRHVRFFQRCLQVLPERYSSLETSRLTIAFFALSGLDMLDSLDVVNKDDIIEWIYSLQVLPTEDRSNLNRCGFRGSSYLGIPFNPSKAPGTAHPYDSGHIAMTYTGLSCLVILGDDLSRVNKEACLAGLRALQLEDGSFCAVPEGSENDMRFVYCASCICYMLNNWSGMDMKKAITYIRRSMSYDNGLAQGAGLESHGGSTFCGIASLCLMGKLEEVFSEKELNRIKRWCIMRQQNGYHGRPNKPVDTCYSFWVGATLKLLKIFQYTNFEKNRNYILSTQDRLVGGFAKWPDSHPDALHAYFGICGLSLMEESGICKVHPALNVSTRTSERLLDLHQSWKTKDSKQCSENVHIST
T2 sequence (P49356 whole entry): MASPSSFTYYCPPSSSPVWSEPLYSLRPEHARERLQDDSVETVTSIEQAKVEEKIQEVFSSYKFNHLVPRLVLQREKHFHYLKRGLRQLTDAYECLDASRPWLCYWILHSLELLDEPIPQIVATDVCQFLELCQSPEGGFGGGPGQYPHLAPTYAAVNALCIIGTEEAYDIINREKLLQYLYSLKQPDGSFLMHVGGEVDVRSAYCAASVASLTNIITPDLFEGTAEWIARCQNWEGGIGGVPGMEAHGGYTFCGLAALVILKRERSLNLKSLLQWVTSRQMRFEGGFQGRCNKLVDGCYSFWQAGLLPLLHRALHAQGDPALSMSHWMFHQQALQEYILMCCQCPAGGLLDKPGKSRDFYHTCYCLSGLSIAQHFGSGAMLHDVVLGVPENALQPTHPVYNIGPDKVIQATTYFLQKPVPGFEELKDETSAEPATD

`CC[C@H](C)C(=O)O[C@H]1C[C@@H](C)C=C2C=C[C@H](C)[C@H](CC[C@@H]3C[C@@H](O)CC(=O)O3)[C@H]21` [lovastatin, reference compound]: the “inhibition of Ras processing” value in experiment [1] (FIG. 16A) is listed as “inhibited Ras processing”. The “inhibition of Rap1A processing” value in experiment [2] is on record as “inhibited the processing of Rap1A”.
For `CSCC[C@H](NC(=O)c1ccc(NC[C@@H](N)CS)cc1)C(=O)O` [FTI-249, 4-N-[2(R)-Amino-3-mercaptopropyl]aminobenzoyl methionine], the “inhibition of Ras processing” value in experiment [1] (200 μM) and in experiment [1] (FIG. 16A) was “did not inhibit Ras processing” each time. In addition, the concentration for half-maximal inhibition (IC50) – broadly, the concentration needed to halve the response being measured – in experiment [3] (setting [7]) turned out to be 3.97 µM; in experiment [3] (setting [8]), 4.4 µM; in experiment [4], 100 µM; in experiment [5] (Table 1), 0.272 µM; in experiment [5] (Table 4), 0.3 µM; in experiment [5] it was 0.3 µM. The “selectivity for FTase over GGTase I” value in experiment [5] amounted to 15 fold. For the same compound, the GG/F in experiment [5] (Table 1) turned out to be 15. The Selectivity in experiment [5] (Table 4) is 15.
For the compound `COC(=O)[C@H](CCSC)NC(=O)c1ccc(NC[C@@H](N)CS)cc1` [FTI-254, 4-N-[2(R)-Amino-3-mercaptopropyl]aminobenzoyl methionine methyl ester], the “inhibition of Ras processing” value in experiment [1] (200 μM) was “inhibited FTase”. For the same compound, the figures for the concentration for half-maximal inhibition (IC50) in experiment [3] (setting [7]) and in experiment [5] (Table 1) were 19 µM and 1 µM, respectively. In experiment [5] (Table 1), the GG/F is 19.
For `N[C@@H](CS)C(=O)NCc1cccc(-c2cccc(C(=O)O)c2)c1` [FTI-238, Cys-3-aminomethyl-3'-carboxybiphenyl], in experiment [6], the Substrate entry is recorded as “no”. The IC50 in experiment [3] (setting [8]) was above 100 µM. For the same compound, in experiment [5] (Table 4), the Selectivity was above 1 and the IC50 turned out to be 100 µM.
As to `Cc1cccc(-c2ccc(NC[C@@H](N)CS)cc2)c1` [FTI-263, 4-N-[2(R)-Amino-3-mercaptopropyl]amino-3'-methylbiphenyl], the “inhibition of Rap1A processing” value in experiment [2] is reported as “did not inhibit Rap1A processing”. Besides, in experiment [6], the Substrate entry is listed as “no”. Besides, in experiment [3] (setting [8]), the IC50 is above 100 µM. In addition, in experiment [5] (Table 4), the Selectivity was 141 and the IC50 came to 0.71 µM.
`COC(=O)c1cccc(-c2ccc(NC[C@@H](N)CS)cc2)c1` [FTI-259, 4-N-[2(R)-Amino-3-mercaptopropyl]amino-3'-methoxycarbonylbiphenyl]: the Substrate entry in experiment [6] is listed as “no”. The concentration for half-maximal inhibition (IC50) in experiment [3] (setting [8]) was above 100 µM. Besides, in experiment [5] (Table 4), the Selectivity is listed as 109 and the IC50 came out at 0.917 µM.
On to `N[C@@H](CS)CNc1ccc(-c2ccc(C(=O)O)cc2)cc1` [FTI-271, 4-N-[2(R)-Amino-3-mercaptopropyl]amino-4'-carboxybiphenyl], for which the “inhibition of Rap1A processing” value in experiment [2] is given as “did not inhibit Rap1A processing”. For the same compound, the Substrate entry in experiment [6] is “no”. For the same compound, in experiment [3] (setting [8]), the IC50 is above 100 µM.
